{"source": "paper PMC7413254", "about": "(Nature Communications, 2020)", "key": {"non-expressing oocytes [1]": {"tested_on": "non-expressing oocytes", "type": "cell-based, Xenopus laevis", "details": "non-expressing oocytes, total [3H]CQ transport, normalised to the oocyte type control", "outline": "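Oocytes (ten per treatment, ≥4 independent frogs/days) were preloaded by injecting VF-6 in 25 nL ND96 at pH 5.0, 5.5, 6.0 or 7.0, or Na^+-free choline buffer, then uptake run 1.5 h, 27.5 °C, ND96 pH 5.5 by default. Internal concentrations assumed ~400 nL oocyte volume.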"}, "PfCRT^Ecu1110 [2]": {"molecular_target": "T1, PfCRT^Ecu1110 (Plasmodium falciparum, UniProt Q9N623, A220S/I356L/K76T/N326D)", "T1 sequence (Q9N623 whole entry A220S/I356L/K76T/N326D)": "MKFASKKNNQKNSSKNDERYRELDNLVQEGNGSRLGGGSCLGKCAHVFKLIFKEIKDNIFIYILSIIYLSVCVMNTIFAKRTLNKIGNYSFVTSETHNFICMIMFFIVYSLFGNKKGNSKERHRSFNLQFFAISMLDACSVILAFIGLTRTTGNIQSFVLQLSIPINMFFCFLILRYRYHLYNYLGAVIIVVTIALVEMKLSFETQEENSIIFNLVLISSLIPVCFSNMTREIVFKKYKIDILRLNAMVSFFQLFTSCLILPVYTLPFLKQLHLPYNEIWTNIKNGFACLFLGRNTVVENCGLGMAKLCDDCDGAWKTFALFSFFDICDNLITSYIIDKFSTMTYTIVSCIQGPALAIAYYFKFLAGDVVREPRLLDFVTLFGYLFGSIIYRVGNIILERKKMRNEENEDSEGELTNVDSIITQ", "experiment": "[3H]CQ uptake into Xenopus oocytes, cis-inhibition by unlabelled solute", "type": "cell-based", "details": "for Uptake of [3H]CQ (% PfCRTEcu1110 control), cis-inhibition / PfCRT-mediated [3H]CQ transport, cis-inhibition (% PfCRTEcu1110 control): PfCRTEcu1110 oocytes; for Uptake of [3H]CQ (% PfCRTEcu1110 control), cis-inhibition: total [3H]CQ transport, normalised to the oocyte type control; for PfCRT-mediated [3H]CQ transport, cis-inhibition (% PfCRTEcu1110 control): background [3H]CQ accumulation subtracted, normalised to oocyte type control; for [3H]CQ transport (% PfCRTEcu1110 control), cis-inhibition, PfCRTEcu1110: PfCRT-mediated component (background subtracted), sheet title says normalised to PfCRTDd2 control, mean ± SEM, SEM", "outline": "(§1)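 Assay buffer ND96 (10 mM MES, 10 mM Tris-base) held at pH 5.5 to mimic vacuole lumen; uptake measured inward from this acidic medium over 1.5 h at 27.5 °C.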"}, "PfCRT^Dd2 [3]": {"molecular_target": "T2, PfCRT^Dd2 (Plasmodium falciparum, UniProt Q9N623, A220S/I356T/K76T/M74I/N326S/N75E/Q271E/R371I)", "T2 sequence (Q9N623 whole entry A220S/I356T/K76T/M74I/N326S/N75E/Q271E/R371I)": "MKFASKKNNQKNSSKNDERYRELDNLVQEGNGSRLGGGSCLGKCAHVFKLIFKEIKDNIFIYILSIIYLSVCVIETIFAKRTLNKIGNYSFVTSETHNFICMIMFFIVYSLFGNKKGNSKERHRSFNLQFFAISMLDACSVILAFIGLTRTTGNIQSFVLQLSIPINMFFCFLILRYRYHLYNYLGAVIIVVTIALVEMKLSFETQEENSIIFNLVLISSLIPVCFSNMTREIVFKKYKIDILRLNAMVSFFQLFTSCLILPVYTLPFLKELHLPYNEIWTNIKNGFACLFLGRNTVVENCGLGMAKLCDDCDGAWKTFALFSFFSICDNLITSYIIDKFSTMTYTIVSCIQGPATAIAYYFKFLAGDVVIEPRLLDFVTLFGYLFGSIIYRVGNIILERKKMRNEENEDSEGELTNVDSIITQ", "experiment": "[3H]CQ uptake into Xenopus oocytes, cis-inhibition by unlabelled solute", "type": "cell-based", "details": "PfCRTDd2 oocytes, background [3H]CQ accumulation subtracted, normalised to oocyte type control", "outline": "as §1"}, "PfCRT^3D7 [4]": {"molecular_target": "T3, PfCRT^3D7 (Plasmodium falciparum, UniProt Q8IBZ9)", "T3 sequence (Q8IBZ9 59-398)": "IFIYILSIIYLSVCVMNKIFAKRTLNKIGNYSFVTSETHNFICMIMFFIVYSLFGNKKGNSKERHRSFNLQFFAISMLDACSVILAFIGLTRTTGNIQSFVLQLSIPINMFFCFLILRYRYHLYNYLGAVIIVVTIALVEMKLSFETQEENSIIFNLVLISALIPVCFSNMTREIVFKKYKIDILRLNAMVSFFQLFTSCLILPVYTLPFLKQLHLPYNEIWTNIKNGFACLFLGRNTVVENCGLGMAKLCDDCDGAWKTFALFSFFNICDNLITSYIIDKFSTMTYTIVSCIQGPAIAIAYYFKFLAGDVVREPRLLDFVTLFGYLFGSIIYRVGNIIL", "experiment": "cell-based", "type": "cell-based", "details": "PfCRT3D7 oocytes, total [3H]CQ transport, normalised to the oocyte type control", "outline": "as §1"}, "non-expressing oocytes [5]": {"tested_on": "non-expressing oocytes", "experiment": "cells", "type": "cell-based, Xenopus laevis", "details": "non-expressing oocytes, total [3H]CQ transport, normalised to the oocyte type control", "outline": "as §1"}, "PfCRT^Ecu1110 [6]": {"molecular_target": "T1, PfCRT^Ecu1110", "experiment": "cell-based", "type": "cell-based", "details": "for Uptake of [3H]CQ (% PfCRTEcu1110 control), trans-stimulation / PfCRT-mediated [3H]CQ transport, trans-stimulation (% PfCRTEcu1110 control): PfCRTEcu1110 oocytes; for Uptake of [3H]CQ (% PfCRTEcu1110 control), trans-stimulation: total [3H]CQ transport, normalised to the oocyte type control; for PfCRT-mediated [3H]CQ transport, trans-stimulation (% PfCRTEcu1110 control): normalised to oocyte type control; for [3H]CQ transport (% PfCRTDd2 control), trans-stimulation, PfCRTEcu1110: PfCRT-mediated component (background subtracted), sheet title says normalised to PfCRTDd2 control, mean ± SEM, SEM", "outline": "(§2)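 Transport measured in Xenopus oocytes expressing the transporters, 1.5 h at 27.5 °C in ND96 pH 5.5 unless noted. For trans-stimulation, VF-6 injected in 25 nL ND96 at pH 5.0–7.0 or Na^+-free (choline) buffer; intracellular levels based on ~400 nL oocyte volume. Ten oocytes per treatment, ≥4 experiments.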"}, "PfNT1": {"molecular_target": "T4, PfNT1 (Plasmodium falciparum, UniProt Q8IDM6)", "T4 construct": "expressed in transfected cells; host or cells: Xenopus laevis oocytes (stage V-VI), cRNA-injected", "T4 sequence (Q8IDM6 whole entry)": "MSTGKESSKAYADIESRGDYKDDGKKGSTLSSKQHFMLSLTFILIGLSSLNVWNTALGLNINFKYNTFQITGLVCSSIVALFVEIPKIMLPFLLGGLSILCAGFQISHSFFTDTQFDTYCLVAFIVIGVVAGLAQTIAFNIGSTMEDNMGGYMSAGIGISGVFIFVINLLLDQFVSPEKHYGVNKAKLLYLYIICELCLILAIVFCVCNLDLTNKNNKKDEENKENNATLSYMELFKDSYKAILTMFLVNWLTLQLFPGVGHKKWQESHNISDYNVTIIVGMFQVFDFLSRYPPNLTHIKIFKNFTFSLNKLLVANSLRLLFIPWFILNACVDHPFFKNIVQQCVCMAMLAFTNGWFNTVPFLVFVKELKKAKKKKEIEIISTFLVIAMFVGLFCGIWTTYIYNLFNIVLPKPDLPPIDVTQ", "experiment": "cell-based", "type": "cell-based", "details": "PfNT1 oocytes, total [3H]CQ transport, normalised to the oocyte type control", "outline": "as §2"}, "PfCRT^3D7 [7]": {"molecular_target": "T3, PfCRT^3D7", "experiment": "cell-based", "type": "cell-based", "details": "PfCRT3D7 oocytes; for Uptake of [3H]CQ (% PfCRT3D7 control), trans-stimulation: total [3H]CQ transport, normalised to the oocyte type control; for PfCRT-mediated [3H]CQ transport, trans-stimulation (% PfCRT3D7 control): normalised to oocyte type control", "outline": "as §2"}, "PfCRT^Dd2 [8]": {"molecular_target": "T2, PfCRT^Dd2", "experiment": "cell-based", "type": "cell-based", "details": "for PfCRT-mediated [3H]CQ transport, trans-stimulation (% PfCRTDd2 control): normalised to oocyte type control; for [3H]CQ transport (% PfCRTDd2 control), trans-stimulation, PfCRTDd2: PfCRT-mediated component (background subtracted), mean ± SEM, SEM", "outline": "as §2"}, "[9]": {"details": "[test solute]i = 45 mM (30 mM for some solutes due to solubility)"}, "[10]": {"details": "[test solute]i = 5 mM (intracellular)"}, "[11]": {"details": "[test solute]i = 45 mM (intracellular; 30 mM for some solutes due to solubility)"}, "[12]": {"details": "[test solute]i = 5 mM (injected)"}}, "note": "Where two headings read alike, the source gives them in different places."}
{"substance": "GGYR [GR-4]", "values": [{"measurement": "Uptake of [3H]CQ (% non-expressing oocyte control), trans-stimulation", "setting": "non-expressing oocytes [1]; [test solute]i = 5 mM", "result": "100 ± 2.7 % non-expressing oocyte control"}, {"measurement": "Uptake of [3H]CQ (% non-expressing oocyte control), trans-stimulation", "setting": "non-expressing oocytes [1]; [9]", "result": "97 ± 2.5 % non-expressing oocyte control"}, {"measurement": "Uptake of [3H]CQ (% PfCRTEcu1110 control), cis-inhibition", "setting": "PfCRT^Ecu1110 [2]; [test solute] = 0.5 mM", "result": "78 ± 6.9", "unit": "% PfCRTEcu1110 control"}, {"measurement": "Uptake of [3H]CQ (% PfCRTEcu1110 control), cis-inhibition", "setting": "PfCRT^Ecu1110 [2]; [test solute] = 1 mM", "result": "65 ± 7.1", "unit": "% PfCRTEcu1110 control"}, {"measurement": "Uptake of [3H]CQ (% PfCRTEcu1110 control), cis-inhibition", "setting": "PfCRT^Ecu1110 [2]; [test solute] = 2 mM", "result": "53 ± 4.7", "unit": "% PfCRTEcu1110 control"}, {"measurement": "PfCRT-mediated [3H]CQ transport, cis-inhibition (% PfCRTEcu1110 control)", "setting": "PfCRT^Ecu1110 [2]; [test solute] = 0.5 mM", "result": "71 ± 2.5", "unit": "% PfCRTEcu1110 control"}, {"measurement": "PfCRT-mediated [3H]CQ transport, cis-inhibition (% PfCRTEcu1110 control)", "setting": "PfCRT^Ecu1110 [2]; [test solute] = 1 mM", "result": "59 ± 2.4", "unit": "% PfCRTEcu1110 control"}, {"measurement": "PfCRT-mediated [3H]CQ transport, cis-inhibition (% PfCRTEcu1110 control)", "setting": "PfCRT^Ecu1110 [2]; [test solute] = 2 mM", "result": "48 ± 3.1", "unit": "% PfCRTEcu1110 control"}, {"measurement": "[3H]CQ transport (% PfCRTEcu1110 control), cis-inhibition, PfCRTEcu1110", "setting": "PfCRT^Ecu1110 [2]; [test solute] = 1 mM", "result": "19 ± 0.1", "unit": "% PfCRTEcu1110 control"}, {"measurement": "[3H]CQ transport (% PfCRTEcu1110 control), cis-inhibition, PfCRTEcu1110", "setting": "PfCRT^Ecu1110 [2]; [test solute] = 2 mM", "result": "15 ± 0.6", "unit": "% PfCRTEcu1110 control"}, {"measurement": "PfCRT-mediated [3H]CQ transport, cis-inhibition (% PfCRTDd2 control)", "setting": "PfCRT^Dd2 [3]; [test solute] = 0.5 mM", "result": "71 ± 2.9", "unit": "% PfCRTDd2 control"}, {"measurement": "PfCRT-mediated [3H]CQ transport, cis-inhibition (% PfCRTDd2 control)", "setting": "PfCRT^Dd2 [3]; [test solute] = 1 mM", "result": "58 ± 4.2", "unit": "% PfCRTDd2 control"}, {"measurement": "PfCRT-mediated [3H]CQ transport, cis-inhibition (% PfCRTDd2 control)", "setting": "PfCRT^Dd2 [3]; [test solute] = 2 mM", "result": "40 ± 2.1", "unit": "% PfCRTDd2 control"}, {"measurement": "Uptake of [3H]CQ (% PfCRT3D7 control), cis-inhibition", "setting": "PfCRT^3D7 [4]; [test solute] = 0.5 mM", "result": "102 ± 4.3", "unit": "% PfCRT3D7 control"}, {"measurement": "Uptake of [3H]CQ (% PfCRT3D7 control), cis-inhibition", "setting": "PfCRT^3D7 [4]; [test solute] = 1 mM", "result": "98 ± 4.8", "unit": "% PfCRT3D7 control"}, {"measurement": "Uptake of [3H]CQ (% PfCRT3D7 control), cis-inhibition", "setting": "PfCRT^3D7 [4]; [test solute] = 2 mM", "result": "102 ± 5.8", "unit": "% PfCRT3D7 control"}, {"measurement": "Uptake of [3H]CQ (% non-expressing oocyte control), cis-inhibition", "setting": "non-expressing oocytes [5]; [test solute] = 0.5 mM", "result": "99 ± 5.2 % non-expressing oocyte control"}, {"measurement": "Uptake of [3H]CQ (% non-expressing oocyte control), cis-inhibition", "setting": "non-expressing oocytes [5]; [test solute] = 2 mM", "result": "100 ± 3.6 % non-expressing oocyte control"}, {"measurement": "Uptake of [3H]CQ (% PfCRTEcu1110 control), trans-stimulation", "setting": "PfCRT^Ecu1110 [6]; [test solute]i = 5 mM", "result": "99 ± 3.2", "unit": "% PfCRTEcu1110 control"}, {"measurement": "Uptake of [3H]CQ (% PfCRTEcu1110 control), trans-stimulation", "setting": "PfCRT^Ecu1110 [6]; [9]", "result": "100 ± 3.2", "unit": "% PfCRTEcu1110 control"}, {"measurement": "PfCRT-mediated [3H]CQ transport, trans-stimulation (% PfCRTEcu1110 control)", "setting": "PfCRT^Ecu1110 [6]; [10]", "result": "97 ± 4.1", "unit": "% PfCRTEcu1110 control"}, {"measurement": "PfCRT-mediated [3H]CQ transport, trans-stimulation (% PfCRTEcu1110 control)", "setting": "PfCRT^Ecu1110 [6]; [11]", "result": "98 ± 4.3", "unit": "% PfCRTEcu1110 control"}, {"measurement": "[3H]CQ transport (% PfCRTDd2 control), trans-stimulation, PfCRTEcu1110", "setting": "PfCRT^Ecu1110 [6]; [12]", "result": "29 ± 1.5", "unit": "% PfCRTEcu1110 control"}, {"measurement": "[3H]CQ transport (% PfCRTDd2 control), trans-stimulation, PfCRTEcu1110", "setting": "PfCRT^Ecu1110 [6]; [9]", "result": "30 ± 1.2", "unit": "% PfCRTEcu1110 control"}, {"measurement": "Uptake of [3H]CQ (% PfNT1 control), trans-stimulation", "setting": "PfNT1; [test solute]i = 5 mM", "result": "99 ± 3.2", "unit": "% PfNT1 control"}, {"measurement": "Uptake of [3H]CQ (% PfNT1 control), trans-stimulation", "setting": "PfNT1; [9]", "result": "100 ± 3.7", "unit": "% PfNT1 control"}, {"measurement": "Uptake of [3H]CQ (% PfCRT3D7 control), trans-stimulation", "setting": "PfCRT^3D7 [7]; [test solute]i = 5 mM", "result": "100 ± 2.6", "unit": "% PfCRT3D7 control"}, {"measurement": "Uptake of [3H]CQ (% PfCRT3D7 control), trans-stimulation", "setting": "PfCRT^3D7 [7]; [9]", "result": "99 ± 2.6", "unit": "% PfCRT3D7 control"}, {"measurement": "PfCRT-mediated [3H]CQ transport, trans-stimulation (% PfCRT3D7 control)", "setting": "PfCRT^3D7 [7]; [10]", "result": "98 ± 3.3", "unit": "% PfCRT3D7 control"}, {"measurement": "PfCRT-mediated [3H]CQ transport, trans-stimulation (% PfCRT3D7 control)", "setting": "PfCRT^3D7 [7]; [11]", "result": "97 ± 4.2", "unit": "% PfCRT3D7 control"}, {"measurement": "Uptake of [3H]CQ (% PfCRTDd2 control), trans-stimulation", "setting": "PfCRT^Dd2 [8]; PfCRTDd2 oocytes, [test solute]i = 45 mM (30 mM for some solutes due to solubility), total [3H]CQ transport, normalised to the oocyte type control", "result": "103 ± 3.6", "unit": "% PfCRTDd2 control"}, {"measurement": "PfCRT-mediated [3H]CQ transport, trans-stimulation (% PfCRTDd2 control)", "setting": "PfCRT^Dd2 [8]; [test solute]i = 5 mM (intracellular), PfCRTDd2 oocytes", "result": "99 ± 2.9", "unit": "% PfCRTDd2 control"}, {"measurement": "PfCRT-mediated [3H]CQ transport, trans-stimulation (% PfCRTDd2 control)", "setting": "PfCRT^Dd2 [8]; [test solute]i = 45 mM (intracellular; 30 mM for some solutes due to solubility), PfCRTDd2 oocytes", "result": "100 ± 4.9", "unit": "% PfCRTDd2 control"}, {"measurement": "[3H]CQ transport (% PfCRTDd2 control), trans-stimulation, PfCRTDd2", "setting": "PfCRT^Dd2 [8]; [12]", "result": "99 ± 2.9", "unit": "% PfCRTDd2 control"}, {"measurement": "[3H]CQ transport (% PfCRTDd2 control), trans-stimulation, PfCRTDd2", "setting": "PfCRT^Dd2 [8]; [9]", "result": "100 ± 4.9", "unit": "% PfCRTDd2 control"}]}
